Laboratory results published in US20170002385A1, “USING CELL DEBRIS GENERATED FROM PHA RECOVERY FOR ENHANCED CELL GROWTH AND BIOPOLYESTER FORMATION” (BIO ON S.r.l., priority 2009, published 2017).
“And” between values parts separate entries of the source, which are not always exact repeats. Equal entries are not always repeated.

Tested on: PHA-producing microbial cells
Experiment: flask cultures: effect of cell debris solutions and SDS on cell growth and PHA formation
Type: cell-based
Conditions: for Cell mass: 12 g/L glucose
Procedure: Starting with cell mass of high PHA content (72% w/w), production of 1 kg of PHA, in a purity of 96.4 w/w, generates about 0.45 kg of cell debris as shown in the scheme reported above. Disposal of this large amount of waste in aqueous solution is a task of high cost, but could be avoided with additional benefit if the cell debris could be reused in PHA fermentation. In order to reveal the effect of cell debris on cell growth and PHA formation, microbial cultures were conducted in 500 mL flasks in parallel. The flask cultures were set up with the same glucose concentrations (10-20 g/L), the same volume of mineral solution (160 mL) as shown in Table 1 reported hereinbelow, and the same inoculum and size. After predetermined amount of cell debris solutions were added, the total volume of flask cultures was raised to 200 mL by adding pre-sterilized distilled and deionized water. The flasks were shaken at 200 rpm and 30 ° C. in a rotary incubator for 24 or 48 hours. The cell mass concentration and PHA content were determined as described in the literature (see Jian Yu and Lilian X. L. Chen (2006), “Cost-effective recovery and purification of polyhydroxyalkanoates by selective dissolution of cell mass”, Biotechnology Progress, 22:547-553). […]
Surfactants such as SDS are optionally used in PHA recovery to disrupt cells and remove lipids and pigments from polyesters. They are soluble and left in the cell debris solutions, which may cause adverse effect on cell growth when the cell debris solution is reused in PHA fermentation. An acid-base cell debris solution containing 48.5 g/L of soluble solids and 5 g/L of SDS was used in this case. In the same flask cultures above (12 g/L of glucose), 8 mL of ABCDS was added to give 1.94 g/L of cell debris and 0.2 g/L of SDS. Additional SDS was also added to increase SDS concentration to 0.4, 0.6 and 0.8 g/L. Table 4 gives the results of cell growth and PHA formation at different surfactant levels. […] The benefit of cell debris at low SDS concentration (0.2-0.4 g/L) leads to 200-300% of increase in PHA concentration in comparison with the control.

In the case of CCCCCCCCCCCCOS(=O)(=O)[O-].[Na+] [SDS, sodium dodecyl sulfate], the “PHA formation vs control without cell debris and surfactant” value (SDS 0.2-0.6 g/L with 1.94 g/L cell debris) is reported as “enhanced”, the Cell mass (SDS 0.2 g/L with 1.94 g/L cell debris (ABCDS), 24 hours) is reported as 3.69 g/L and the Cell mass (SDS 0.2 g/L with 1.94 g/L cell debris (ABCDS), 48 hours) is reported as 4.99 g/L. For the same compound, the Cell mass (SDS 0.4 g/L with 1.94 g/L cell debris (ABCDS), 24 hours, sulfate) was 3.22 g/L and 3.33 g/L, the Cell mass (SDS 0.4 g/L with 1.94 g/L cell debris (ABCDS), 48 hours, sulfate) was 4.46 g/L and 4.62 g/L and the Cell mass (SDS 0.6 g/L with 1.94 g/L cell debris (ABCDS), 24 hours) was 2.70 g/L. For the same compound, the Cell mass (SDS 0.6 g/L with 1.94 g/L cell debris (ABCDS), 48 hours) was 3.51 g/L, the “PHA formation vs control without cell debris and surfactant” value (SDS 0.8 g/L with 1.94 g/L cell debris) was “damaged to a great extent” and the Cell mass (SDS 0.8 g/L with 1.94 g/L cell debris (ABCDS), 24 hours) was 2.59 g/L. For the same compound, the Cell mass (SDS 0.8 g/L with 1.94 g/L cell debris (ABCDS), 48 hours) was 3.54 g/L.
